Experimental data taken from US6566547B1, “Fungicides” (Zeneca Limited, priority 1984, dated 2003).
Counter-ions that a name gives are not always drawn.

## CO/C=C(/C(=O)OC)c1ccccc1 (as salt: sulphate)
  melting point: 37 to 38 °C
